Source: US9029396B2, “Substituted indole derivatives” (Novartis AG, priority 2011, dated 2015)

Legend:
PKC-theta = target: T1, PKC-theta (Homo sapiens, UniProt Q04759); assay: Protein kinase C theta assay (Caliper mobility shift); format: biochemical; conditions: full length human recombinant enzyme, 70 μM ATP; read-out: PKCθ (IC50 in nM)
T1 construct: Both enzymes were full length human recombinant protein expressed in insect cells; purchased Invitrogen AG, Basel, Switzerland; host or cells: insect cells
T1 sequence (Q04759 whole entry): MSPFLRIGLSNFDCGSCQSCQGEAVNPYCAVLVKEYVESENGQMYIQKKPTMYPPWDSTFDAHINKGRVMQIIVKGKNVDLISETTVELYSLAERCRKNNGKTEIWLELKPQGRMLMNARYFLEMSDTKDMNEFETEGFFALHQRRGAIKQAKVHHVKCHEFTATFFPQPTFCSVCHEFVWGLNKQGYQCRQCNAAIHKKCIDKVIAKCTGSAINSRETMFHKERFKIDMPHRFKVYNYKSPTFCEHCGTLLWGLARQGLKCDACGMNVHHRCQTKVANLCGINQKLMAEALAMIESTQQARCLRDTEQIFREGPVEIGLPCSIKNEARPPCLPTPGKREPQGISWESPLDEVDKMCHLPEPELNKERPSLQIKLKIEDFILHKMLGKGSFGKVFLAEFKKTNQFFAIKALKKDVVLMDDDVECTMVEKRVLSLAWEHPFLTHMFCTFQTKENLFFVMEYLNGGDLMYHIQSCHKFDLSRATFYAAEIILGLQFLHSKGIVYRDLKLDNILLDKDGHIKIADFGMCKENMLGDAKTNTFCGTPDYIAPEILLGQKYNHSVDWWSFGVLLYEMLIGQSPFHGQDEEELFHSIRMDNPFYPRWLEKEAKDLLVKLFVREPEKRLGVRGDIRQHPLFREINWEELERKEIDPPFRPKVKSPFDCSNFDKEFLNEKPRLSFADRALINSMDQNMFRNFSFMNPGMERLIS
Experimental: (§1) The compounds of the invention were tested for their activity on different PKC isotypes according to the following method. All assays were performed in 384 well microtiter plates. Each assay plate contained 8-point serial dilutions for 40 test compounds, as well as two 16-point serial dilutions of staurosporine as reference compound, plus 16 high- and 16 low controls. Liquid handling and incubation steps were done on a automated workstation equipped with a Innovadyne Nanodrop Express.
(§2) The assay plates were prepared by addition of 50 nL per well of compound solution in 90% DMSO. The kinase reactions were started by stepwise addition of 4.5 μl per well of a 2× peptide/ATP-solution and 4.5 μl per well of a 2× enzyme solution. The final concentration of reagents during kinase reaction were: 50 mM HEPES, pH 7.5, 1 mM DTT, 0.02% Tween20, 0.02% BSA, 0.6% DMSO, 10 mM beta-glycerophosphate, and 10 μM sodium orthovanadate. The peptide substrate used in the PKC-alpha and PKC-theta assays was Dy495-X5-ME-Mpr-RFARKGSLRQKNV-COOH. […]
(§3) Plates with terminated kinase reactions were transferred to the Caliper LC3000 workstations for reading. Phosphorylated and unphosphorylated peptides were separated using the Caliper microfluidic mobility shift technology and Kinase activities were calculated from the amounts of formed phospho-peptide.

PKC-alpha = target: T2, PKC-alpha (Homo sapiens, UniProt P17252); assay: Protein kinase C alpha assay (Caliper mobility shift); format: biochemical; conditions: full length human recombinant enzyme, 17 μM ATP; read-out: PKCα (IC50 in nM)
T2 construct: Both enzymes were full length human recombinant protein expressed in insect cells; purchased Invitrogen AG, Basel, Switzerland; host or cells: insect cells
Experimental: as §1, §2, §3

[1] = Dog pharmacokinetics after oral administration of compound of example No. 1; format: in vivo, Beagle dogs
Experimental: A single dose of the compound of example 1 (3.0 mg/kg) was administered p.o. to 3 male Beagle dogs. Compound 1 was dosed as an aqueous suspension of the crystalline monohydrate form in Methylcellulose (0.5%): Tween 80 (1%) (90:10). Blood was taken in regular intervals by venipuncture, and the samples were analyzed for a period of up to 24 hours. The compounds of the examples 1, 2, and 3 were quantitatively assessed over time, and the results are tabulated below:
Key pharmacokinetic parameters (mean values±standard deviations (n=3) for 1, 2 and 3 after oral dosing of example No. 1.

[2] = Stability in gastric and intestinal simulated fluids at 37° C.; format: physicochemical
Experimental: Stability Assessments Stability of Cpd. Example No. 1 in Gastric and Intestinal Simulated Fluids at 37° C.:
Stability of compound Example No. 3
(Free form/acetate salt form) in gastric and intestinal simulated fluids at 37° C.: […]

[3] = Chemical stability of amorphous and crystalline solid; format: physicochemical; conditions: 1 week
[4] = dog, blood, po, male Beagle dogs, example 1 3.0 mg/kg p.o.

## Cc1cccc2c(C3=C(c4nc(N5CCNC6(CC6)C5)cc5ccccc45)C(=O)N(COP(=O)(O)O)C3=O)c[nH]c12 [Example 1, Phosphoric acid mono-[3-[3-(4,7-diaza-spiro[2.5]oct-7-yl)-isoquinolin-1-yl]-4-(7-methyl-1H-indol-3-yl)-2,5-dioxo-2,5-dihydro-pyrrol-1-ylmethyl]ester]
PKC-theta
  IC50: 462 nM
PKC-alpha
  IC50: 1680 nM
[1]; after administration, example 3 is main component in blood after around an hour
  Conversion of prodrug into parent compound in blood: is converted into compound of example 3
[1]; [4]
  concentration at 0.25 h: 3.1 nM
  concentration at 0.5 h: 1.1 nM
[2]; FaSSIF pH 6.5, 37° C., 0 hours
  Amount in Area % of compound example No. 1: 95.1 Area %
[2]; FaSSIF pH 6.5, 37° C., 1 hours
  Amount in Area % of compound example No. 1: 93.8 Area %
[2]; FaSSIF pH 6.5, 37° C., 2.5 hours
  Amount in Area % of compound example No. 1: 92.3 Area %
[2]; FaSSIF pH 6.5, 37° C., 4.2 hours
  Amount in Area % of compound example No. 1: 90.5 Area %
[2]; FaSSIF pH 6.5, 37° C., 7 hours
  Amount in Area % of compound example No. 1: 87.7 Area %
[2]; FeSSIF pH 5.8, 37° C., 0 hours
  Amount in Area % of compound example No. 1: 95.0 Area %
[2]; FeSSIF pH 5.8, 37° C., 1 hours
  Amount in Area % of compound example No. 1: 94.9 Area %
[2]; FeSSIF pH 5.8, 37° C., 2.5 hours
  Amount in Area % of compound example No. 1: 94.8 Area %
[2]; FeSSIF pH 5.8, 37° C., 4.2 hours
  Amount in Area % of compound example No. 1: 94.8 Area %
[2]; FeSSIF pH 5.8, 37° C., 7 hours
  Amount in Area % of compound example No. 1: 94.8 Area %
[2]; SGF pH 2, 37° C., 0 hours
  Amount in Area % of compound example No. 1: 95.9 Area %
[2]; SGF pH 2, 37° C., 1 hours
  Amount in Area % of compound example No. 1: 95.5 Area %
[2]; SGF pH 2, 37° C., 2.5 hours
  Amount in Area % of compound example No. 1: 95.3 Area %
[2]; SGF pH 2, 37° C., 4.2 hours
  Amount in Area % of compound example No. 1: 95.6 Area %
[2]; SGF pH 2, 37° C., 7 hours
  Amount in Area % of compound example No. 1: 95.6 Area %
[3]; Amorphous, initial purity 98.5 %, 50 ° C.
  Purity after exposure: 95.8%
[3]; Amorphous, initial purity 98.5 %, 80 ° C.
  Purity after exposure: 89.7%
[3]; Crystalline mono-hydrate, initial purity 100 %, 50 ° C.
  Purity after exposure: 100%
[3]; Crystalline mono-hydrate, initial purity 100 %, 80 ° C.
  Purity after exposure: 100%

## Cc1cccc2c(C3=C(c4nc(N5CCNC6(CC6)C5)cc5ccccc45)C(=O)N(CO)C3=O)c[nH]c12 [Example 2, 3-[3-(4,7-Diaza-spiro[2.5]oct-7-yl)-isoquinolin-1-yl]-1-hydroxymethyl-4-(7-methyl-1H-indol-3-yl)-pyrrole-2,5-dione]
[1]; dog, blood, po, male Beagle dogs, example 1 3.0 mg/kg p.o. (crystalline monohydrate suspension), 0.083 h
  concentration at 0.083 h: 10 nM
[1]; [4]
  concentration at 0.25 h: 39.6 nM
  concentration at 0.5 h: 31.3 nM
[1]; dog, blood, po, male Beagle dogs, example 1 3.0 mg/kg p.o., 0.75 h
  concentration at 0.75 h: 19.1 nM
[1]; dog, blood, po, male Beagle dogs, example 1 3.0 mg/kg p.o., 1 h
  concentration at 1 h: 6.3 nM
[1]; dog, blood, po, male Beagle dogs, example 1 3.0 mg/kg p.o., 2 h
  concentration at 2 h: 7.7 nM
[1]; dog, blood, po, male Beagle dogs, example 1 3.0 mg/kg p.o., 3 h
  concentration at 3 h: 1 nM
[1]; dose normalized, mean ± SD (n=3), after oral dosing of example No. 1 to dogs
  AUC d.n.: low
[1]; male, Beagle, dog, blood, 3 mg/kg, mean ± SD (n=3), after oral dosing of example No. 1 to dogs
  Tmax: 24 ± 6 min
